Measured values as given in patent US9149051B2, “Dairy composition with high-potency sweetener” (THE COCA-COLA COMPANY, priority 2005, dated 2015).

Assay: Rate of dissolution in H2O at 25° C. of rebaudioside A polymorph and amorphous forms
Assay type: physicochemical
Settings: rating in words
Excerpt: The purification of rebaudioside A by crystallization as described above results in the formation of at least three different polymorphs: Form 1: a rebaudioside A hydrate; Form 2: an anhydrous rebaudioside A; and Form 3: a rebaudioside A solvate. In addition to the at least three polymorph forms of rebaudioside A, the purification of rebaudioside A may result in the formation of an amorphous form of rebaudioside A, Form 4. The aqueous organic solution and temperature of the purification process influence the resulting polymorph and amorphous forms in the substantially pure rebaudioside A composition. FIGS. 1-5 are exemplary powder x-ray diffraction (XRPD) scans of the polymorph and amorphous forms of rebaudioside A: Form 1 (hydrate), Form 2 (anhydrate), Form 3A (methanol solvate), Form 3B (ethanol solvate), and Form 4 (amorphous), respectively.

| Rate of dissolution in H2O at 25° C. | Substance |
| --- | --- |
| Very low | rebaudioside A [Form 1] |
| Intermediate | rebaudioside A [Form 2] |
| High | rebaudioside A [Form 3] |
| High | rebaudioside A [Form 4] |
